ChEMBL document CHEMBL1150044, “Brominated polyacetylenes from the Philippines sponge Diplastrella sp” (J Nat Prod, 2003)
Structures can show the parent of a compound that is named as a salt.

Biological target: Human immunodeficiency virus type 1 integrase (Human immunodeficiency virus 1, UniProt Q7ZJM1)
Test: Inhibition of HIV1 recombinant integrase

Sequence of Human immunodeficiency virus type 1 integrase (Q7ZJM1 whole entry): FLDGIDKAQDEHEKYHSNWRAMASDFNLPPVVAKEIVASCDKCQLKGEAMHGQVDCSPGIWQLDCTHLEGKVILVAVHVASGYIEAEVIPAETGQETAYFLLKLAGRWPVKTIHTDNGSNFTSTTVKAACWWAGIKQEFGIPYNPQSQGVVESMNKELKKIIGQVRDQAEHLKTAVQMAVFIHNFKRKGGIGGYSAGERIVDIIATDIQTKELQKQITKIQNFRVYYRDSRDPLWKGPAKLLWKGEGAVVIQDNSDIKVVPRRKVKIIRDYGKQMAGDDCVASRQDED

| SMILES | IC50 |
| --- | --- |
| O=S(=O)(O)OCCC#CC#CCCCCC#CC#C/C=C/Br | 78.3 µM |
| O=S(=O)(O)OCC(O)C#CC#CCCCCCCC#C/C=C/Br (stereo not drawn) | 74.4 µM |
| OCC(O)C#CC#CCCCCCCC#C/C=C/Br (stereo not drawn) [DIPLYNE A] | > 155 µM |
| O=S(=O)(O)OCC(O)C#CC#CCCCCCCCC/C=C/Br (stereo not drawn) [DIPLYNE C SULFATE] | 73.7 µM |
| OCC(O)C#CC#CCCCCCCCC/C=C/Br (stereo not drawn) [DIPLYNE C] | > 153 µM |

Next, values leading:

| IC50 | SMILES |
| --- | --- |
| > 155 µM | OCC(O)C#CC#CCCCCCCC#C/C=C\Br (stereo not drawn) [DIPLYNE B] |
| > 157 µM | OCC(O)C#CC#CCCCCC#CC#C/C=C/Br (stereo not drawn) [DIPLYNE D] |
| > 156 µM | OCC(O)C#CC#CCCCC/C=C/C#C/C=C/Br (stereo not drawn) [DIPLYNE E] |
